The test system of series [1] is TFK1 cells. Particulars: PFKL-knockout (sgPFKL) TFK1 cells and PFKL-overexpressing (ovPFKL) HuCCT1 cells; LC-MS/MS of cell lysates; n=3 biological replicates; Supplementary Fig. 5f.
Series [2] relates to H3K9ac and H3K27ac in TFK1 cells. Kind of series: Immunoblot of H3K9ac and H3K27ac. Type of series: cell-based, human. Particulars: prolonged romidepsin treatment, n = 3 biological replicates, Fig. 3f. The protocol: For immunoblotting, cells were washed with ice-cold PBS and lysed in RIPA lysis buffer (supplemented with protease inhibitor and phosphatase inhibitor cocktails Ⅱ and Ⅲ) for 15 min at 4 °C. The protein concentrations of the samples were normalized using a BCA protein assay kit (Thermo). Immunoblots were performed with specific primary antibodies, followed by the addition of a fluorescein-conjugated secondary antibody, after which the proteins were detected via an Odyssey fluorescence scanner (LI-COR).
(In general: A western blot detects proteins with antibodies after separation by electrophoresis.)

For a further series, the system named is MCF7 cells. Nature of the series: Cell viability assay (CellTiter-Glo, 72 h), GI50. In kind it is cell-based. The conditions noted are these: Homo sapiens, Fig. 6a. The protocol:
(§1) Cell viability was assessed using the CellTiter-Glo luminescent cell viability assay (Vazyme, DD1101) following the manufacturer’s instructions. Briefly, 5000 cells per well were seeded into a 96-well white bottom permeable plate. Different concentrations of drugs were added to each well. After 72 h of treatment, a mixture of CellTier reagent and serum-free culture medium was prepared at a 1:1 ratio, and 100 μL of the mixture was added to each well. After incubation at 37 °C for 15 min, the luminescence was measured using a microplate reader (Synergy H1, Biotek). All the experiments were conducted in triplicate. Cell viability (relative luminescence) was defined as the luminescence of the drug treatment relative to that of the vehicle control.
For orientation: Cellular ATP, detected with luciferase, serves as a proxy for viable cell number.

A further series concerns TOV21G cells. Kind of series: Cell viability assay (CellTiter-Glo, 72 h), GI50. In kind it is cell-based. The conditions noted are these: Homo sapiens, Fig. 6a. How it is done: as §1
The test system of another series is BT-549 cells. Kind of series: Cell viability assay (CellTiter-Glo, 72 h), GI50. In kind it is cell-based. Particulars: Homo sapiens, BT-549, 72 h. How it is done: as §1
The next series deals with A549 cells. Kind of series: Cell viability assay (CellTiter-Glo, 72 h), GI50. In kind it is cell-based. The conditions noted are these: Homo sapiens, A549, 72 h. How it is done: as §1
The test system of a further series is NCI-H596 cells. Nature of the series: Cell viability assay (CellTiter-Glo, 72 h), GI50. Type of series: cell-based. Particulars: Homo sapiens, Fig. 6a. The protocol:
as §1

The test system of another series is RMG-I cells. Kind of series: Cell viability assay (CellTiter-Glo, 72 h), GI50. In kind it is cell-based. Particulars: Homo sapiens. How it is done:
as §1

The test system of series [3] is TFK1 cells. Kind of series: Cell viability assay (CellTiter-Glo, 72 h), GI50. In kind it is cell-based, human. Particulars: Homo sapiens. The protocol:
as §1

The mark [4] stands for this setting: romidepsin combined with NS or peptide, Fig. 6c.

What is called GI50 is the concentration that inhibits growth by half.

Take `C/C=C1\NC(=O)[C@H]2CSSCC/C=C/[C@H](CC(=O)N[C@H](C(C)C)C(=O)N2)OC(=O)[C@H](C(C)C)NC1=O` [Romidepsin, romidepsin]: the “cellular uptake of romidepsin with differential expression of PFKL” value in the series on TFK1 cells [1] was “did not affect the cellular uptake”. Also, the “acetylation at the H3K9 and K27 histone sites” value in series [2] was “gradual increase in acetylation”. For the same compound, the GI50 with MCF7 cells was 0.56 nM; with TOV21G cells, 0.36 nM; in the series on BT-549 cells (BT549, romidepsin combined with NS or peptide, Fig. 6c), 16.2 nM; with BT-549 cells (BT-549, Fig. 6a), 13.7 nM; in the series with A549 cells (Fig. 6a), 5.87 nM; in the series on A549 cells (setting [4]) it was 7.62 nM. Besides, the GI50 in the series on NCI-H596 cells was found to be 0.12 nM; in the series with RMG-I cells (Fig. 6a), 5.71 nM; in the series with RMG-I cells (setting [4]) it was 9.48 nM.

For the compound `Cc1[nH]c2ccccc2c1CCNCc1ccc(/C=C/C(=O)NO)cc1` [Panobinostat, panobinostat], the GI50 with TFK1 cells [3] (TFK1, CellTiter-Glo, Fig. 1b) was determined as 62.7 nM; in the series with TFK1 cells [3] (TFK1 after interference with LHCGR si-1, Fig. 1f), 31 nM; in the series on TFK1 cells [3] (TFK1 after interference with LHCGR si-2, Fig. 1f), 28.3 nM; in the series on TFK1 cells [3] (TFK1 after interference with NFIA si-1, Fig. 1f), 42.7 nM; in the series on TFK1 cells [3] (TFK1 after interference with NFIA si-2, Fig. 1f), 46.6 nM; in the series on TFK1 cells [3] (TFK1 after interference with PFKFB1 si-1, Fig. 1f), 45.1 nM. In addition, the GI50 in the series on TFK1 cells [3] (TFK1 after interference with PFKFB1 si-2, Fig. 1f) was found to be 60.6 nM; with TFK1 cells [3] (TFK1 after interference with PFKL si-1, Fig. 1f), 605 nM; with TFK1 cells [3] (TFK1 after interference with PFKL si-2, Fig. 1f), 402 nM; with TFK1 cells [3] (TFK1 expressing sgNC, Fig. 1g), 53.9 nM; with TFK1 cells [3] (TFK1 expressing sgPFKL-1, Fig. 1g), 964 nM; with TFK1 cells [3] (TFK1 expressing sgPFKL-2, Fig. 1g) it was 644 nM. The GI50 in the series on TFK1 cells [3] (TFK1 siNC, Fig. 1f) was 40.1 nM.

These data come from article PMC12518634, “The noncanonical function of liver-type phosphofructokinase potentiates the efficacy of HDAC inhibitors in cancer” (Signal Transduction and Targeted Therapy, 2025).
